Source: patent publication US20250282827A1, “LIPIDATED POLYMYXIN ANALOGUES” (priority 2021, published 2025)
Values after ≈ are worked out from the molar mass of the structure shown. Positions of bridges follow the written chain, without caps; N, C: chain ends. Non-standard residues stand in square brackets, D forms with d. Residues, ends and D or L forms follow the SMILES beside them. *: point of attachment. CH2CH2OBz(4-tBu) = CC(C)(C)c1ccc(C(=O)OCC*)cc1; Ethyl(2-decanoyloxy) = CCCCCCCCCC(=O)OCC*; Ethyl(2-butanoyloxy) = CCCC(=O)OCC*; Ethyl(2-propionyloxy) = CCC(=O)OCC*; Ethyl(2-OPiv) = CC(C)(C)C(=O)OCC*; Ethyl(2-OBz) = O=C(OCC*)c1ccccc1; X14 = CCCCCCCCCCCC(=O)OCC*; hCys = N[C@@H](CCS)C(=O)O; Dab = NCC[C@H](N)C(=O)O; X4 = CCCCCCCC(=O)OCC*; X1 = CCCCCC(=O)OCC*; Mpa = O=C(O)CCS

test system: E. coli ATCC 25922; type: cell-based, Escherichia coli; settings: ATCC 25922
Text: All 81 compounds prepared in Examples 2 and 3 underwent screening against a panel of Gram-negative bacterium to assess their ability to inhibit bacterial growth. […] The median value is presented.

Compound	MIC E. coli ATCC 25922
CCC(=O)OCCSC[C@H](N)C(=O)N[C@H](C(=O)N[C@@H](CCN)C(=O)N[C@H]1CCNC(=O)[C@H]([C@@H](C)O)NC(=O)[C@H](CCN)NC(=O)[C@H](CCN)NC(=O)[C@H](CC(C)C)NC(=O)[C@@H](Cc2ccccc2)NC(=O)[C@H](CCN)NC1=O)[C@@H](C)O [Compound 61] (H-C(Ethyl(2-propionyloxy))T[Dab][Dab][Dab][dF]L[Dab][Dab]T; lactam 4-C)	>128 µg/mL
CCC(=O)OCCSC[C@@H](N)C(=O)N[C@H](C(=O)N[C@@H](CCN)C(=O)N[C@H]1CCNC(=O)[C@H]([C@@H](C)O)NC(=O)[C@H](CCN)NC(=O)[C@H](CCN)NC(=O)[C@H](CC(C)C)NC(=O)[C@@H](Cc2ccccc2)NC(=O)[C@H](CCN)NC1=O)[C@@H](C)O [Compound 62] (H-[dC](Ethyl(2-propionyloxy))T[Dab][Dab][Dab][dF]L[Dab][Dab]T; lactam 4-C)	1 µg/mL (≈ 0.857 µM)
CCC(=O)OCCSCCC(=O)N[C@H](C(=O)N[C@@H](CCN)C(=O)N[C@H]1CCNC(=O)[C@H]([C@@H](C)O)NC(=O)[C@H](CCN)NC(=O)[C@H](CCN)NC(=O)[C@H](CC(C)C)NC(=O)[C@@H](Cc2ccccc2)NC(=O)[C@H](CCN)NC1=O)[C@@H](C)O [Compound 63] ([Mpa](Ethyl(2-propionyloxy))T[Dab][Dab][Dab][dF]L[Dab][Dab]T; lactam 4-C)	8 µg/mL (≈ 6.95 µM)
CCC(=O)OCCSCC[C@H](N)C(=O)N[C@H](C(=O)N[C@@H](CCN)C(=O)N[C@H]1CCNC(=O)[C@H]([C@@H](C)O)NC(=O)[C@H](CCN)NC(=O)[C@H](CCN)NC(=O)[C@H](CC(C)C)NC(=O)[C@@H](Cc2ccccc2)NC(=O)[C@H](CCN)NC1=O)[C@@H](C)O [Compound 64] (H-[hCys](Ethyl(2-propionyloxy))T[Dab][Dab][Dab][dF]L[Dab][Dab]T; lactam 4-C)	>128 µg/mL
CCC(=O)OCCSC[C@H](N)C(=O)N[C@H](C(=O)N[C@@H](CCN)C(=O)N[C@H]1CCNC(=O)[C@H]([C@@H](C)O)NC(=O)[C@H](CCN)NC(=O)[C@H](CCN)NC(=O)[C@H](CC(C)C)NC(=O)[C@@H](Cc2ccccc2)NC(=O)[C@H](CCN)NC1=O)[C@@H](C)O [Compound 65] (H-C(Ethyl(2-propionyloxy))T[Dab][Dab][Dab][dF]L[Dab][Dab]T; lactam 4-C)	64 µg/mL (≈ 54.9 µM)
CC(C)C[C@@H]1NC(=O)[C@@H](Cc2ccccc2)NC(=O)[C@H](CCN)NC(=O)[C@@H](NC(=O)[C@H](CCN)NC(=O)[C@@H](NC(=O)[C@@H](N)CSCCOC(=O)C(C)(C)C)[C@@H](C)O)CCNC(=O)[C@H]([C@@H](C)O)NC(=O)[C@H](CCN)NC(=O)[C@H](CCN)NC1=O [Compound 71] (H-C(Ethyl(2-OPiv))T[Dab][Dab][Dab][dF]L[Dab][Dab]T; lactam 4-C)	32 µg/mL (≈ 26.8 µM)
CC(C)C[C@@H]1NC(=O)[C@@H](Cc2ccccc2)NC(=O)[C@H](CCN)NC(=O)[C@@H](NC(=O)[C@H](CCN)NC(=O)[C@@H](NC(=O)[C@@H](N)CSCCOC(=O)c2ccc(C(C)(C)C)cc2)[C@@H](C)O)CCNC(=O)[C@H]([C@@H](C)O)NC(=O)[C@H](CCN)NC(=O)[C@H](CCN)NC1=O [Compound 73] (H-C(CH2CH2OBz(4-tBu))T[Dab][Dab][Dab][dF]L[Dab][Dab]T; lactam 4-C)	1 µg/mL (≈ 0.787 µM)
CCC(=O)OCCSC[C@@H](N)C(=O)N[C@H](C(=O)N[C@@H](CCN)C(=O)N[C@H]1CCNC(=O)[C@H]([C@@H](C)O)NC(=O)[C@H](CCN)NC(=O)[C@H](CCN)NC(=O)[C@H](CC(C)C)NC(=O)[C@@H](Cc2ccccc2)NC(=O)[C@H](CCN)NC1=O)[C@@H](C)O [Compound 74] (H-[dC](Ethyl(2-propionyloxy))T[Dab][Dab][Dab][dF]L[Dab][Dab]T; lactam 4-C)	2 µg/mL (≈ 1.71 µM)

Next, values leading:

MIC E. coli ATCC 25922	Compound
16 µg/mL (≈ 13.6 µM)	CCCC(=O)OCCSC[C@H](N)C(=O)N[C@H](C(=O)N[C@@H](CCN)C(=O)N[C@H]1CCNC(=O)[C@H]([C@@H](C)O)NC(=O)[C@H](CCN)NC(=O)[C@H](CCN)NC(=O)[C@H](CC(C)C)NC(=O)[C@@H](Cc2ccccc2)NC(=O)[C@H](CCN)NC1=O)[C@@H](C)O [Compound 66] (H-C(Ethyl(2-butanoyloxy))T[Dab][Dab][Dab][dF]L[Dab][Dab]T; lactam 4-C)
4 µg/mL (≈ 3.31 µM)	CCCCCC(=O)OCCSC[C@H](N)C(=O)N[C@H](C(=O)N[C@@H](CCN)C(=O)N[C@H]1CCNC(=O)[C@H]([C@@H](C)O)NC(=O)[C@H](CCN)NC(=O)[C@H](CCN)NC(=O)[C@H](CC(C)C)NC(=O)[C@@H](Cc2ccccc2)NC(=O)[C@H](CCN)NC1=O)[C@@H](C)O [Compound 67] (H-C(X1)T[Dab][Dab][Dab][dF]L[Dab][Dab]T; lactam 4-C)
1 µg/mL (≈ 0.809 µM)	CCCCCCCC(=O)OCCSC[C@H](N)C(=O)N[C@H](C(=O)N[C@@H](CCN)C(=O)N[C@H]1CCNC(=O)[C@H]([C@@H](C)O)NC(=O)[C@H](CCN)NC(=O)[C@H](CCN)NC(=O)[C@H](CC(C)C)NC(=O)[C@@H](Cc2ccccc2)NC(=O)[C@H](CCN)NC1=O)[C@@H](C)O [Compound 68] (H-C(X4)T[Dab][Dab][Dab][dF]L[Dab][Dab]T; lactam 4-C)
2 µg/mL (≈ 1.58 µM)	CCCCCCCCCC(=O)OCCSC[C@H](N)C(=O)N[C@H](C(=O)N[C@@H](CCN)C(=O)N[C@H]1CCNC(=O)[C@H]([C@@H](C)O)NC(=O)[C@H](CCN)NC(=O)[C@H](CCN)NC(=O)[C@H](CC(C)C)NC(=O)[C@@H](Cc2ccccc2)NC(=O)[C@H](CCN)NC1=O)[C@@H](C)O [Compound 69] (H-C(Ethyl(2-decanoyloxy))T[Dab][Dab][Dab][dF]L[Dab][Dab]T; lactam 4-C)
8 µg/mL (≈ 6.19 µM)	CCCCCCCCCCCC(=O)OCCSC[C@H](N)C(=O)N[C@H](C(=O)N[C@@H](CCN)C(=O)N[C@H]1CCNC(=O)[C@H]([C@@H](C)O)NC(=O)[C@H](CCN)NC(=O)[C@H](CCN)NC(=O)[C@H](CC(C)C)NC(=O)[C@@H](Cc2ccccc2)NC(=O)[C@H](CCN)NC1=O)[C@@H](C)O [Compound 70] (H-C(X14)T[Dab][Dab][Dab][dF]L[Dab][Dab]T; lactam 4-C)
1 µg/mL (≈ 0.847 µM)	CCCC(=O)OCCSC[C@@H](N)C(=O)N[C@H](C(=O)N[C@@H](CCN)C(=O)N[C@H]1CCNC(=O)[C@H]([C@@H](C)O)NC(=O)[C@H](CCN)NC(=O)[C@H](CCN)NC(=O)[C@H](CC(C)C)NC(=O)[C@@H](Cc2ccccc2)NC(=O)[C@H](CCN)NC1=O)[C@@H](C)O [Compound 75] (H-[dC](Ethyl(2-butanoyloxy))T[Dab][Dab][Dab][dF]L[Dab][Dab]T; lactam 4-C)
0.125 µg/mL (≈ 0.103 µM)	CCCCCC(=O)OCCSC[C@@H](N)C(=O)N[C@H](C(=O)N[C@@H](CCN)C(=O)N[C@H]1CCNC(=O)[C@H]([C@@H](C)O)NC(=O)[C@H](CCN)NC(=O)[C@H](CCN)NC(=O)[C@H](CC(C)C)NC(=O)[C@@H](Cc2ccccc2)NC(=O)[C@H](CCN)NC1=O)[C@@H](C)O [Compound 76] (H-[dC](X1)T[Dab][Dab][Dab][dF]L[Dab][Dab]T; lactam 4-C)

same assay, conditions: median of triplicate

Compound	MIC E. coli ATCC 25922
CC(C)C[C@@H]1NC(=O)[C@@H](Cc2ccccc2)NC(=O)[C@H](CCN)NC(=O)[C@@H](NC(=O)[C@H](CCN)NC(=O)[C@@H](NC(=O)[C@@H](N)CSCCOC(=O)c2ccccc2)[C@@H](C)O)CCNC(=O)[C@H]([C@@H](C)O)NC(=O)[C@H](CCN)NC(=O)[C@H](CCN)NC1=O [Compound 72] (H-C(Ethyl(2-OBz))T[Dab][Dab][Dab][dF]L[Dab][Dab]T; lactam 4-C)	8 µg/mL (≈ 6.59 µM)
